Experimental data as given in patent publication US10874743B2, “IRAK degraders and uses thereof” (Kymera Therapeutics, Inc., priority 2017, dated 2020).

Target: T1, IRAK4 (Homo sapiens, UniProt Q9NWZ3)
T1 sequence (Q9NWZ3 1-460): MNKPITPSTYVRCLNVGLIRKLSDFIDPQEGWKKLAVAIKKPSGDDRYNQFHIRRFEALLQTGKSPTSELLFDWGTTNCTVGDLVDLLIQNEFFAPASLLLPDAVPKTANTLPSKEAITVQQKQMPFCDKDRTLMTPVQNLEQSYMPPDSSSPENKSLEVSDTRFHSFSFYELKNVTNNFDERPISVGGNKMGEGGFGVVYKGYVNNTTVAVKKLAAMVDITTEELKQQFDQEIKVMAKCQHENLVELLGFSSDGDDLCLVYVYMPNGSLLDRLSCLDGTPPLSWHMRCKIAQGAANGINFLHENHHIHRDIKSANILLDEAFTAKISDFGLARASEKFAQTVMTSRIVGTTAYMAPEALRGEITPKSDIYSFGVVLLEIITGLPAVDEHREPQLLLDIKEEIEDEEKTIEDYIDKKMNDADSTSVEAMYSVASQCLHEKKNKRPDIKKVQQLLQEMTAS
Assay: OCI-LY-10 degradation assay (western blot, % IRAK4 degraded after 4 hours)
Type: cell-based
Design: endogenous in cells; host or cells: OCI-LY10
Conditions: OCI-LY10 cells; for OCI-LY10 % IRAK4 Degradation (0.01 uM) / OCI-LY10 % IRAK4 Degradation (0.1 uM) / OCI-LY10 % IRAK4 Degradation (1 uM): 4 hours; for OCI-LY10 % IRAK4 Degradation (0.01 uM): 0.01 uM compound; for OCI-LY10 % IRAK4 Degradation (0.1 uM): 0.1 uM compound; for OCI-LY10 % IRAK4 Degradation (1 uM): 1 uM compound; for OCI-LY10 % IRAK4 Degradation: IRAK4 degraded after 4 hours, western blot
Summary of the method: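 OCI-LY10 cells (RPMI-1640, 20% FBS, 55 μM 2-ME) treated with compound at 0.003-10 μM final for 4 h at 37° C, then lysed in RIPA buffer. IRAK4 level read by fluorescent western blot (20-25 μg protein) and binned as % degraded: A >50%, B >20-50%, C <20%.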

Structure (SMILES) | OCI-LY10 % IRAK4 Degradation (0.01 uM) | OCI-LY10 % IRAK4 Degradation (0.1 uM) | OCI-LY10 % IRAK4 Degradation (1 uM) | OCI-LY10 % IRAK4 Degradation
O=C1CCC(N2C(=O)c3cccc(NCCOCCOCCN4Cc5ccc(-n6cc(NC(=O)c7coc(-c8ccnc(NCC9CC9)c8)n7)c(C(F)(F)F)n6)cc5C4)c3C2=O)C(=O)N1 (centres unmarked) [I-426, 2-[2-(Cyclopropylmethylamino)-4-pyridyl]-N-[1-[2-[2-[2-[2-[[2-(2,6-dioxo-3-piperidyl)-1,3-dioxo-isoindolin-4-yl]amino]ethoxy]ethoxy]ethyl]isoindolin-5-yl]-3-(trifluoromethyl)pyrazol-4-yl]oxazole-4-carboxamide] | C (<20% degradation) | C (<20% degradation) | C (<20% degradation) | 
NC(=O)[C@@H](O)C[C@H]1CCc2sc3ncnc(O[C@H]4CC[C@H](N5CCN(C(=O)COCCNc6cccc7c6C(=O)N(C6CCC(=O)NC6=O)C7=O)CC5)CC4)c3c21 (some centres unmarked) [I-153] |  |  |  | C (<20% degradation)
CN(CCOCCOCCCc1ccc2c(c1)C(=O)N(C1CCC(=O)NC1=O)C2=O)Cc1ccc(-n2cc(NC(=O)c3coc(-c4ccncc4)n3)c(C(N)=O)n2)cc1 (centres unmarked) [I-309] | B (>20-50% degradation) | A (>50% degradation) | A (>50% degradation) | 
CN(CCOCCOCCNc1cccc2c1C(=O)N(C1CCC(=O)NC1=O)C2=O)C(=O)[C@H]1C[C@H](NC(=O)c2cnc(-n3ncc4cc(C#N)cnc43)cc2NC2CC2)C1 (some centres unmarked) [I-37] |  |  |  | C (<20% degradation)
O=C1CCC(N2C(=O)c3ccc(NCc4cn(CCOCCOCCNCc5ccc(-n6cc(NC(=O)c7coc(-c8ccnc(NCC9CC9)c8)n7)c(C(F)F)n6)cc5)nn4)cc3C2=O)C(=O)N1 (centres unmarked) [I-341] | C (<20% degradation) | A (>50% degradation) | A (>50% degradation) | 
CC[C@@H]1[C@H](F)C(=O)N[C@@H]1COc1nccc2cc(C(=O)NCCOCCOCCOCCOCCNc3cccc4c3C(=O)N(C3CCC(=O)NC3=O)C4=O)c(OC)cc12 (some centres unmarked) [I-78] |  |  |  | C (<20% degradation)
Cc1ccc(NS(=O)(=O)c2ccc(CNC(=O)COCCOCCOCCOCCNC(=O)c3ccc(-n4cc(NC(=O)c5coc(-c6ccnc(NCC(F)(F)F)c6)n5)c(C(N)=O)n4)cc3)cc2)c2[nH]cc(C#N)c12 [I-113] |  |  |  | C (<20% degradation)
O=C1CCC(N2C(=O)c3cccc(NCCOCCOCCOCCOCCNC(=O)c4ccc(-n5cc(NC(=O)c6coc(-c7ccnc(NCC8CC8)c7)n6)c(C(F)F)n5)cc4)c3C2=O)C(=O)N1 (centres unmarked) [I-212] | B (>20-50% degradation) | A (>50% degradation) | A (>50% degradation) | 
CC(OCCOCCOCCNc1cccc2c1C(=O)N(C1CCC(=O)NC1=O)C2=O)C(F)CNC(=O)c1cnc(-n2ncc3cc(C#N)cnc32)cc1NC1CC1 (centres unmarked) [I-63] |  |  |  | C (<20% degradation)
Cn1c(=O)n(C2CCC(=O)NC2=O)c2ccc(CCCOCCOCCNC(=O)c3ccc(-n4cc(NC(=O)c5coc(-c6ccnc(NCC(F)(F)F)c6)n5)c(C(N)=O)n4)cc3)cc21 (centres unmarked) [I-248] | B (>20-50% degradation) | A (>50% degradation) | A (>50% degradation) | 
CC(C)(OCCOCCNc1cccc2c1C(=O)N(C1CCC(=O)NC1=O)C2=O)C(F)CNC(=O)c1cnc(-n2ncc3cc(C#N)cnc32)cc1NC1CC1 (centres unmarked) [I-79] |  |  |  | C (<20% degradation)
N#Cc1cnc2c(cnn2-c2cc(NC3CC3)c(C(=O)NCC(F)COCCOCCOCCNc3cccc4c3C(=O)N(C3CCC(=O)NC3=O)C4=O)cn2)c1 (centres unmarked) [I-46, 6-(5-Cyanopyrazolo[3,4-b]pyridin-1-yl)-4-(cyclopropylamino)-N-[3-[2-[2-[2-[[2-(2,6-dioxo-3-piperidyl)-1,3-dioxo-isoindolin-4-yl]amino]ethoxy]ethoxy]ethoxy]-2-fluoro-propyl]pyridine-3-carboxamide] |  |  |  | C (<20% degradation)
Cc1ncsc1-c1ccc(CNC(=O)C2C[C@@H](O)CN2C(=O)[C@@H](NC(=O)COCCOCCOCCOCCOC(C)C(F)CNC(=O)c2cnc(-n3ncc4cc(C#N)cnc43)cc2NC2CC2)C(C)(C)C)cc1 (some centres unmarked) [I-121] |  |  |  | C (<20% degradation)
Cc1ncsc1-c1ccc(CNC(=O)[C@@H]2C[C@@H](O)CN2C(=O)[C@@H](NC(=O)COCCOCCOCCNC(=O)c2ccc(-n3cc(NC(=O)c4coc(-c5ccnc(NCC(F)(F)F)c5)n4)c(C(N)=O)n3)cc2)C(C)(C)C)cc1 [I-115] |  |  |  | B (>20-50% degradation)
NC(=O)c1nn(-c2ccc(C(=O)NCC3CN(CCOCCNc4cccc5c4C(=O)N(C4CCC(=O)NC4=O)C5=O)CCO3)cc2)cc1NC(=O)c1coc(-c2ccnc(NCC(F)(F)F)c2)n1 (centres unmarked) [I-151] |  |  |  | A (>50% degradation)
NC(=O)c1nn(-c2cccc(C(=O)NCCOCCOCCOCCOCCNc3cccc4c3C(=O)N(C3CCC(=O)NC3=O)C4=O)c2)cc1NC(=O)c1coc(-c2ccnc(NCC(F)(F)F)c2)n1 (centres unmarked) [I-136] |  |  |  | B (>20-50% degradation)
O=C1CCC(N2C(=O)c3cccc(NCCOCCN4CCO[C@@H](CNC(=O)c5ccc(-n6cc(NC(=O)c7coc(-c8ccnc(NCC9CC9)c8)n7)c(C(F)F)n6)cc5)C4)c3C2=O)C(=O)N1 (some centres unmarked) [I-247] | B (>20-50% degradation) | A (>50% degradation) | A (>50% degradation) | 
O=C1CCC(N2C(=O)c3ccc(CCCOCCNCc4ccc(-n5cc(NC(=O)c6coc(-c7ccncc7)n6)c(C(F)F)n5)cc4)cc3C2=O)C(=O)N1 (centres unmarked) [I-382] | C (<20% degradation) | C (<20% degradation) | B (>20-50% degradation) | 
CN(CCNCCCc1ccc2c(c1)C(=O)N(C1CCC(=O)NC1=O)C2=O)C(=O)c1ccc(-n2cc(NC(=O)c3coc(-c4ccncc4)n3)c(C(F)F)n2)cc1 (centres unmarked) [I-378] | C (<20% degradation) | C (<20% degradation) | A (>50% degradation) | 
CN(CCCCCCCCCc1cccc2c1C(=O)N(C1CCC(=O)NC1=O)C2=O)Cc1ccc(-n2cc(NC(=O)c3coc(-c4ccnc(NCC5CC5)c4)n3)c(C(N)=O)n2)cc1 (centres unmarked) [I-316] | B (>20-50% degradation) | B (>20-50% degradation) | B (>20-50% degradation) | 
O=C1CCC(N2C(=O)c3cccc(CNCc4ccc(-n5cc(NC(=O)c6coc(-c7ccncc7)n6)c(C(F)F)n5)cc4)c3C2=O)C(=O)N1 (centres unmarked) [I-359] | C (<20% degradation) | C (<20% degradation) | C (<20% degradation) | 
O=C1CCC(N2C(=O)c3ccc(N4CCN(CCOCCOCCNCc5ccc(-n6cc(NC(=O)c7coc(-c8ccnc(NCC9CC9)c8)n7)c(C(F)F)n6)cc5)CC4)cc3C2=O)C(=O)N1 (centres unmarked) [I-337] | C (<20% degradation) | A (>50% degradation) | A (>50% degradation) | 
CC(C)(OCCOCCNc1cccc2c1C(=O)N(C1CCC(=O)NC1=O)C2=O)C(F)CNC(=O)c1cnc(Nc2ccc3cnccc3n2)cc1NC1CC1 (centres unmarked) [I-80] |  |  |  | C (<20% degradation)
CC(C)(OCCOCCOCCOCCOCCNc1cccc2c1C(=O)N(C1CCC(=O)NC1=O)C2=O)C(F)CNC(=O)c1cnc(-n2ncc3cc(C#N)cnc32)cc1NC1CC1 (centres unmarked) [I-60] |  |  |  | C (<20% degradation)
N#Cc1cnc2c(cnn2-c2cc(NC3CC3)c(C(=O)N[C@H]3CC[C@H](C(=O)NCCOCCOCCOCCNC(=O)COc4cccc5c4C(=O)N(C4CCC(=O)NC4=O)C5=O)CC3)cn2)c1 (some centres unmarked) [I-17] |  |  |  | C (<20% degradation)
O=C1CCC(N2C(=O)c3cccc(NCCOCCN4CCO[C@H](CNCc5ccc(-n6cc(NC(=O)c7coc(-c8ccnc(NCC9CC9)c8)n7)c(C(F)F)n6)cc5)C4)c3C2=O)C(=O)N1 (some centres unmarked) [I-330] | C (<20% degradation) | A (>50% degradation) | A (>50% degradation) | 
